Laboratory results taken from patent publication EP0127529A2, “Aminocyclic N-oxide derivatives, process for their preparation and their therapeutical use” (DELALANDE S.A., priority 1983, dated 1984).

Tests used:
souris = test: Acute toxicity in mice, intraperitoneal route; assay type: in vivo; settings: i.p.
Description: La toxicité aiguë des composés selon l'invention a également été étudiée chez la souris par voie intrapéritonéale. Le tableau II ci-après donne à titre d'exemple non limitatif les résultats obtenus avec certains des composés selon l'invention.

[1] = test system: redressements à l'apomorphine; test: Antagonism of apomorphine-induced rearing (climbing) in mice; assay type: in vivo; settings: souris, i.p.
Description: Ces propriétés psychotropes ont été mises en évidence chez la souris, notamment par le test de l'antagonisme aux redressements à l'apomorphine réalisé d'après le protocole décrit par G. GOURET et Coll. dans J. Pharmacol. (Paris) (^1973), ^4, 341.

SMILES	Toxicité (souris) DL 50 (souris) [mg/kg/i.p.]	Antagonisme aux redressements à l'apomorphine DE 50 [1]
COc1cccc(C(=O)NC2CC3CCC(C2)[N+]3([O-])Cc2ccccc2)c1OC (stereo not shown) [compound 1, N-oxyde axial du (diméthoxy-2,3) benzoylamino-3 N-benzyl aza-8 bicyclo [3.2,1] octane]	> 400	2,2 mg/kg/i.p.
COc1cccc(C(=O)NC2CC3CCC(C2)[N+]3([O-])Cc2ccccc2)c1OC (stereo not shown) [compound 2, N-oxyde équatorial du (diméthoxy-2,3) benzoylamino-3 N-benzyl aza-8 bicyclo[3.2.1] octane]	400	0,27 mg/kg/i.p.
